Test results taken from patent US20230310441A1, “TREATMENT FOR SCHIZOPHRENIA” (TAKEDA PHARMACEUTICAL COMPANY, priority 2020, published 2023).

Legend:
[1] = Brief Assessment of Cognition in Schizophrenia (BACS) composite score; format: in vivo, human
Experimental: On Day 1 of each treatment period, following study drug administration, and commencing at approximately 2 h post-dose, subjects underwent PD tests for a total of approximately 4 h. Blood samples were collected at defined times after dosing to assess the PK of Compound (I). After the last PK collection at 6 h post-dose, subjects left the clinic. On Day 14 of each Treatment Period, subjects took the second set of PD tests along with a single time point PK collection. Samples for PK were also collected on Day 49 and at the final visit of the second treatment period. PD testing were performed in 3 blocks, separated by 2 breaks. The first block comprised the Grip Effort Task, the Progressive Ratio Test, and the Brief Assessment of Cognition in Schizophrenia (BACS). The BACS is a reliable and sensitive test battery specifically designed to efficiently assesses important cognitive deficits in patients with schizophrenia; accordingly, the BACS is suited for repeated testing in a clinical trial setting (Keefe et al., 2004). […] The following domains of cognitive function found to be consistently impaired in schizophrenia were assessed in this study: verbal memory; working memory; motor function; attention and processing speed; verbal fluency; and executive function. A composite score was calculated from each of the subset scores and used as a single endpoint for the assessment.
The BACS consisted of items across 6 subtests: Verbal Memory, Digit Sequencing, Token Motor, Verbal Fluency, Symbol Coding, and Tower of London.
(§1) The observed BOLD signal was summarized (N, mean, median, SD, minimum, and maximum) by treatment (Compound (I) (overall and by dose) and placebo) and time. The BACS composite score was summarized for baseline, post-dose, and change from baseline by treatment, dose, and time.
Each of the primary PD measures was analyzed using a Bayesian normal linear model with effects for sequence, period, treatment, time (as a categorical variable), the treatment-by-time interaction, subject within treatment sequence, and baseline (for BACS only). For the BOLD fMRI, the observed value was the response variable in the model. For the BACS, the observed and the change from baseline were modeled separately. Missing values were not imputed and were not included in the model under a missing at random assumption. A diffuse normal distribution with mean zero and variance 106 was used as a prior for the regression coefficients and a diffuse inverse gamma with shape and scale parameters of 0.01 for the residual variance. […]

[2] = test system: ventral striatum activation; assay: fMRI BOLD ventral striatum activation in the MID Reward Task; format: in vivo, human
From the text: After a break, subjects took the second block that comprised a battery of imaging tests; namely, brain perfusion using non-contrast arterial spin labeling MRI and fMRI scans which monitor changes in blood oxygen level-dependent (BOLD) signal. The fMRI was run in resting state without a task (resting state fMRI) and with 2 tasks (2-task fMRI) using the monetary incentive delay (MID) Reward Task and a Set-Shifting Task. After a break, subjects took the third block which comprised the Effort Expenditure for Rewards Task and the Empathic Accuracy Task. Subjects also received the Positive and Negative Syndrome Scale (PANSS), the Brief Negative Syndrome Scale (BNSS), and the Clinical Global Impression (CGI) Scales (CGI-Severity and CGI-Improvement) as a part of the PD assessment.
The BOLD signal in the average of the left and right ventral striatum activation in the MID Reward Task 3.5 h post-dose on Day 1 and the BACS composite score on Day 14 were the primary PD measures.
as §1
Each of the primary PD measures was analyzed using a Bayesian normal linear model with effects for sequence, period, treatment, time (as a categorical variable), the treatment-by-time interaction, subject within treatment sequence, and baseline (for BACS only). For the BOLD fMRI, the observed value was the response variable in the model. For the BACS, the observed and the change from baseline were modeled separately. Missing values were not imputed and were not included in the model under a missing at random assumption. A diffuse normal distribution with mean zero and variance 106 was used as a prior for the regression coefficients and a diffuse inverse gamma with shape and scale parameters of 0.01 for the residual variance.
The criteria for a positive result at the IA was 70% posterior probability (or greater) of a difference between Compound (I) and placebo >0.09 in ventral striatum activation in the MID fMRI at 3.5 h post-dose on Day 1 or 70% (or greater) posterior probability of a difference between Compound (I) and placebo >2 points in the BACS composite score at Day 14.

Compound: C[C@H](NC(=O)Cn1nnc2ccccc2c1=O)c1ccc(OC(F)(F)F)cc1 [Compound (I), (S)-2-(4-oxobenzo[d][1,2,3]triazin-3(4H)-yl)-N-(1-(4-(trifluoromethoxy)phenyl)ethyl)acetamide]
- posterior mean (SD) for the difference to placebo, BACS composite score ([1]; Day 14, 40 mg): −0.23 (2.95)
- posterior mean (SD) for the difference to placebo, BACS composite score ([1]; Day 14, 160 mg): −0.84 (1.87)
- posterior mean (SD) for the difference to placebo, BACS composite score ([1]; Day 14, overall): −0.61 (1.50)
- BACS performance ([1]; phase 2): not seen to be affected
- ventral striatal activation relative to placebo ([2]; Day 1): decrease in ventral striatal activation
- posterior mean (SD) for the difference to placebo, fMRI BOLD endpoint ([2]; Day 1, 40 mg): −0.1 (0.21)
- posterior mean (SD) for the difference to placebo, fMRI BOLD endpoint ([2]; Day 1, 160 mg): −0.15 (0.14)
- posterior mean (SD) for the difference to placebo, fMRI BOLD endpoint ([2]; Day 1, overall): −0.14 (0.11)
- ventral striatal activation relative to placebo ([2]; Day 14): dose-related increase in activation relative to placebo
